# In PubChem BioAssay AID192 (DTP/NCI, 2004):
# Several values for one entry are separate records, joined by “and”; a condition that tells them apart may be missing. Identical values can stand only once. Toxic doses and inconclusive results are not listed.
# Test system: BDF1 mice, B16 melanoma ip, median survival T/C
# Experiment: NCI In Vivo Anticancer Drug Screen. Data for tumor model B16 Melanoma (intraperitoneal) in B6D2F1 (BDF1) mice
# Conditions: endpoint: median survival time, higher = longer survival
# How it was run: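 Transplantable tumor model; survival or tumor size measured; reported as T/C, treated over vehicle control.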
# [1] = dose: 100.0 mg/kg/injection, schedule: Q01DX009 (ip), vehicle: saline with Tween-80
# [2] = dose: 12.5 mg/kg/injection, schedule: Q01DX009 (ip), vehicle: saline
# [3] = dose: 25.0 mg/kg/injection, schedule: Q01DX009 (ip), vehicle: saline
# [4] = dose: 50.0 mg/kg/injection, schedule: Q01DX009 (ip), vehicle: saline
# [5] = dose: 100.0 mg/kg/injection, schedule: Q01DX009 (ip), vehicle: saline
# [6] = dose: 6.25 mg/kg/injection, schedule: Q01DX009 (ip), vehicle: saline with Tween-80
# [7] = dose: 12.5 mg/kg/injection, schedule: Q01DX009 (ip), vehicle: Klucel (hydroxypropylcellulose) (HPC)
# [8] = dose: 25.0 mg/kg/injection, schedule: Q01DX009 (ip), vehicle: Klucel (hydroxypropylcellulose) (HPC)
# [9] = dose: 100.0 mg/kg/injection, schedule: Q01DX009 (ip), vehicle: Klucel (hydroxypropylcellulose) (HPC)
# [10] = dose: 2.5 mg/kg/injection, schedule: Q01DX009 (ip), vehicle: saline
# [11] = dose: 5.0 mg/kg/injection, schedule: Q01DX009 (ip), vehicle: saline
smiles,measurement,setting,value
COc1cccc2c1C(=O)c1c(O)c3c(c(O)c1C2=O)C[C@@](O)(/C(C)=N/NC(=O)c1ccccc1)C[C@@H]3OC1CC(N)C(O)C(C)O1 (stereo partly specified),T/C,"dose: 0.5 mg/kg/injection, schedule: Q01DX009 (ip), vehicle: water",118 % of control
same,T/C,"dose: 0.75 mg/kg/injection, schedule: Q01DX009 (ip), vehicle: saline",156 % of control
same,T/C,"dose: 1.5 mg/kg/injection, schedule: Q01DX009 (ip), vehicle: saline",156 % of control and 167 % of control and 202 % of control
same,T/C,"dose: 2.0 mg/kg/injection, schedule: Q01DX001 (ip), vehicle: water",158 % of control and 165 % of control
same,T/C,"dose: 2.0 mg/kg/injection, schedule: Q01DX009 (ip), vehicle: water",181 % of control
same,T/C,"dose: 3.0 mg/kg/injection, schedule: Q01DX009 (ip), vehicle: saline",186 % of control and 200 % of control and 226 % of control
same,T/C,"dose: 3.0 mg/kg/injection, schedule: Q04DX003 (ip), vehicle: saline",165 % of control and 172 % of control
same,T/C,"dose: 4.0 mg/kg/injection, schedule: Q01DX001 (ip), vehicle: water",161 % of control and 162 % of control and 202 % of control
same,T/C,"dose: 4.0 mg/kg/injection, schedule: Q01DX009 (ip), vehicle: water",172 % of control
same,T/C,"dose: 6.0 mg/kg/injection, schedule: Q01DX009 (ip), vehicle: saline",191 % of control and 202 % of control and 272 % of control
same,T/C,"dose: 6.0 mg/kg/injection, schedule: Q04DX003 (ip), vehicle: saline",161 % of control and 193 % of control and 260 % of control
same,T/C,"dose: 8.0 mg/kg/injection, schedule: Q01DX001 (ip), vehicle: water",186 % of control and 211 % of control and 275 % of control
same,T/C,"dose: 8.0 mg/kg/injection, schedule: Q01DX009 (ip), vehicle: water",245 % of control
same,T/C,"dose: 12.0 mg/kg/injection, schedule: Q04DX003 (ip), vehicle: saline",155 % of control and 215 % of control and 260 % of control
same,T/C,"dose: 16.0 mg/kg/injection, schedule: Q01DX001 (ip), vehicle: water",178 % of control and 282 % of control and 287 % of control
CC(N)C(=O)NC(CO)C(=O)O (stereo unspecified),T/C,[1],109 % of control
same,T/C,"dose: 200.0 mg/kg/injection, schedule: Q01DX009 (ip), vehicle: saline with Tween-80",97 % of control
same,T/C,"dose: 400.0 mg/kg/injection, schedule: Q01DX009 (ip), vehicle: saline with Tween-80",97 % of control
C/C=C1/CC(C)C(C)(O)C(=O)OCC2CCN3CCC(OC1=O)C23 (stereo unspecified),T/C,[2],109 % of control
same,T/C,[3],109 % of control
same,T/C,[4],102 % of control
same,T/C,[5],107 % of control
CCO/C=C1\SC(=S)N(Cc2ccccc2)C1=O,T/C,"dose: 3.12 mg/kg/injection, schedule: Q01DX009 (ip), vehicle: saline with Tween-80",111 % of control
same,T/C,[6],123 % of control
same,T/C,[7],92 % of control
same,T/C,"dose: 12.5 mg/kg/injection, schedule: Q01DX009 (ip), vehicle: saline with Tween-80",123 % of control
same,T/C,[8],102 % of control and 105 % of control
same,T/C,"dose: 25.0 mg/kg/injection, schedule: Q01DX009 (ip), vehicle: saline with Tween-80",111 % of control
CCCCCCCCCCCCCOC(=O)CC(C(=O)OCCCCCCCCCCCCC)S(=O)(=O)O (stereo unspecified),T/C,[7],106 % of control
same,T/C,[8],108 % of control
same,T/C,"dose: 50.0 mg/kg/injection, schedule: Q01DX009 (ip), vehicle: Klucel (hydroxypropylcellulose) (HPC)",106 % of control
same,T/C,[9],93 % of control
same,T/C,"dose: 200.0 mg/kg/injection, schedule: Q01DX009 (ip), vehicle: Klucel (hydroxypropylcellulose) (HPC)",111 % of control
CN(C)C(=O)c1cccc(COc2ccc(N3C(N)=NC(N)=NC3(C)C)cc2Cl)c1,T/C,"dose: 1.56 mg/kg/injection, schedule: Q01DX009 (ip), vehicle: saline",120 % of control
same,T/C,"dose: 3.13 mg/kg/injection, schedule: Q01DX009 (ip), vehicle: saline",120 % of control
same,T/C,"dose: 6.25 mg/kg/injection, schedule: Q01DX009 (ip), vehicle: saline",117 % of control
same,T/C,[2],104 % of control and 105 % of control
same,T/C,[3],104 % of control and 117 % of control
same,T/C,[4],100 % of control
Clc1ccc2c(c1)/C(=C\c1ccnc3ccccc13)c1cc(Cl)cc(Cl)c1-2,T/C,[6],93 % of control
CC(=O)NC(CCC(=O)C=[N+]=N)C(=O)O (stereo unspecified),T/C,"dose: 0.01 mg/kg/injection, schedule: Q01DX009 (ip), vehicle: water",113 % of control
same,T/C,"dose: 0.05 mg/kg/injection, schedule: Q01DX009 (ip), vehicle: water",102 % of control
same,T/C,"dose: 0.1 mg/kg/injection, schedule: Q01DX009 (ip), vehicle: other",106 % of control
same,T/C,"dose: 0.1 mg/kg/injection, schedule: Q01DX009 (ip), vehicle: water",86 % of control
same,T/C,"dose: 0.2 mg/kg/injection, schedule: Q01DX009 (ip), vehicle: other",90 % of control
same,T/C,"dose: 10.0 mg/kg/injection, schedule: Q04DX003 (ip), vehicle: other",109 % of control
same,T/C,"dose: 15.0 mg/kg/injection, schedule: Q04DX003 (ip), vehicle: water",123 % of control
same,T/C,"dose: 20.0 mg/kg/injection, schedule: Q04DX003 (ip), vehicle: other",100 % of control
same,T/C,"dose: 30.0 mg/kg/injection, schedule: Q04DX003 (ip), vehicle: water",121 % of control
same,T/C,"dose: 40.0 mg/kg/injection, schedule: Q04DX003 (ip), vehicle: other",106 % of control
same,T/C,"dose: 60.0 mg/kg/injection, schedule: Q04DX003 (ip), vehicle: water",118 % of control
CN(C)C(=S)S/C=C\C(=O)O,T/C,"dose: 25.0 mg/kg/injection, schedule: Q04DX003 (ip), vehicle: Klucel (hydroxypropylcellulose) (HPC)",104 % of control
same,T/C,"dose: 50.0 mg/kg/injection, schedule: Q04DX003 (ip), vehicle: Klucel (hydroxypropylcellulose) (HPC)",96 % of control
same,T/C,"dose: 100.0 mg/kg/injection, schedule: Q04DX003 (ip), vehicle: Klucel (hydroxypropylcellulose) (HPC)",92 % of control
same,T/C,"dose: 200.0 mg/kg/injection, schedule: Q04DX003 (ip), vehicle: Klucel (hydroxypropylcellulose) (HPC)",113 % of control
Nc1ccc2nc3ccc(=O)cc-3n(-c3ccccc3)c2c1,T/C,"dose: 0.5 mg/kg/injection, schedule: Q01DX009 (ip), vehicle: saline",109 % of control
same,T/C,"dose: 1.0 mg/kg/injection, schedule: Q01DX009 (ip), vehicle: saline",104 % of control
same,T/C,[10],111 % of control
same,T/C,[11],104 % of control
same,T/C,"dose: 10.0 mg/kg/injection, schedule: Q01DX009 (ip), vehicle: saline",104 % of control
CCN(C)c1cc2c3c(c1)CCCN3CCC2,T/C,"dose: 0.63 mg/kg/injection, schedule: Q01DX009 (ip), vehicle: saline",111 % of control
same,T/C,"dose: 1.25 mg/kg/injection, schedule: Q01DX009 (ip), vehicle: saline",95 % of control
same,T/C,[10],101 % of control
same,T/C,[11],93 % of control
CCNCCNc1ccc(NCCNCC)c2c1C(=O)c1ccccc1C2=O,T/C,"dose: 8.0 mg/kg/injection, schedule: Q01DX009 (ip), vehicle: acid diluted with saline",157 % of control
same,T/C,"dose: 16.0 mg/kg/injection, schedule: Q01DX009 (ip), vehicle: acid diluted with saline",158 % of control
OCC(O)c1ccccn1 (stereo unspecified),T/C,[5],123 % of control
same,T/C,"dose: 400.0 mg/kg/injection, schedule: Q01DX009 (ip), vehicle: saline",123 % of control
NC1=NC(=O)C(c2ccccc2)O1 (stereo unspecified),T/C,[7],94 % of control
same,T/C,[8],97 % of control
same,T/C,[9],102 % of control
CC[PH+](CC)CC[S-].CC[PH+](CC)CC[S-].[Au+].[Au+],T/C,"dose: 2.5 mg/kg/injection, schedule: Q01DX009 (ip), vehicle: Klucel (hydroxypropylcellulose) (HPC)",109 % of control
same,T/C,"dose: 5.0 mg/kg/injection, schedule: Q01DX009 (ip), vehicle: Klucel (hydroxypropylcellulose) (HPC)",112 % of control
same,T/C,"dose: 10.0 mg/kg/injection, schedule: Q01DX009 (ip), vehicle: Klucel (hydroxypropylcellulose) (HPC)",118 % of control
same,T/C,"dose: 20.0 mg/kg/injection, schedule: Q01DX009 (ip), vehicle: Klucel (hydroxypropylcellulose) (HPC)",112 % of control
same,T/C,"dose: 40.0 mg/kg/injection, schedule: Q01DX009 (ip), vehicle: Klucel (hydroxypropylcellulose) (HPC)",110 % of control
Cc1ccc(S(=O)(=O)NC(CSCc2ccccc2)C(=O)O)cc1 (stereo unspecified),T/C,"dose: 50.0 mg/kg/injection, schedule: Q01DX009 (ip), vehicle: saline with Tween-80",92 % of control
same,T/C,[1],86 % of control
c1ccc(CC[P+](c2ccccc2)(c2ccccc2)c2ccccc2)cc1,T/C,"dose: 0.78 mg/kg/injection, schedule: Q01DX009 (ip), vehicle: Klucel (hydroxypropylcellulose) (HPC)",92 % of control
same,T/C,"dose: 1.56 mg/kg/injection, schedule: Q01DX009 (ip), vehicle: Klucel (hydroxypropylcellulose) (HPC)",103 % of control
same,T/C,"dose: 3.13 mg/kg/injection, schedule: Q01DX009 (ip), vehicle: Klucel (hydroxypropylcellulose) (HPC)",92 % of control
